# Measurements from ChEMBL document CHEMBL1201862, “PubChem BioAssay data set” (2004).
#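 Exposure lasted 48 hours, with cells grown in 96-well plates and compounds tested at five concentrations. Abbreviation: GI50, concentration required for 50% inhibition of growth.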 Calls of active or inactive are those of the source. Rule as the data show it: active = GI50 up to about 1.1 µM and inactive = higher.
# Experiments:
# Test in all cases: inhibition of tumour cell growth, NCI panel, 48 h
# COLO 205 = system: COLO 205
# MCF7 = system: MCF7
# UACC-257 = system: UACC-257
# T47D = system: T47D
# M14 = system: M14
# SK-MEL-2 = system: SK-MEL-2
# DU-145 = system: DU-145
# TK-10 = system: TK-10
# OVCAR-4 = system: OVCAR-4
# HOP-62 = system: HOP-62
# NCI-H522 = system: NCI-H522
# OVCAR-3 = system: OVCAR-3
# HOP-92 = system: HOP-92
# MDA-MB-435 = system: MDA-MB-435
# MDA-N = system: MDA-N
# OVCAR-8 = system: OVCAR-8
# K562 = system: K562
# HCT-116 = system: HCT-116
# CCRF-CEM = system: CCRF-CEM
# SF-295 = system: SF-295
SMILES,GI50 (COLO 205),GI50 (MCF7),GI50 (UACC-257),GI50 (T47D),GI50 (M14),GI50 (SK-MEL-2),GI50 (DU-145),GI50 (TK-10),GI50 (OVCAR-4),GI50 (HOP-62),GI50 (NCI-H522),GI50 (OVCAR-3),GI50 (HOP-92),GI50 (MDA-MB-435),GI50 (MDA-N),GI50 (OVCAR-8),GI50 (K562),GI50 (HCT-116),GI50 (CCRF-CEM),GI50 (SF-295)
COC(=O)c1cc(=O)n(-c2ccc3nn(C)nc3c2)cc1C(=O)OC,> 100 µM (inactive),> 100 µM (inactive),> 100 µM (inactive),> 100 µM (inactive),> 100 µM (inactive),> 100 µM (inactive),> 100 µM (inactive),> 100 µM (inactive),> 100 µM (inactive),> 100 µM (inactive),> 100 µM (inactive),> 100 µM (inactive),> 100 µM (inactive),> 100 µM (inactive),> 100 µM (inactive),> 100 µM (inactive),> 100 µM (inactive),> 100 µM (inactive),> 100 µM (inactive),> 100 µM (inactive)
CC[C@]1(Cc2ccc(OC)c(OC)c2)C2CC(C(=O)OC)ON2O[C@H](OCc2ccccc2)[C@@H]1OC(C)=O (stereo partly drawn),> 100 µM (inactive),> 100 µM (inactive),> 100 µM (inactive),47 µM (inactive),> 100 µM (inactive),> 100 µM (inactive),> 100 µM (inactive),> 100 µM (inactive),> 100 µM (inactive),> 100 µM (inactive),> 100 µM (inactive),> 100 µM (inactive),99.3 µM (inactive),> 100 µM (inactive),> 100 µM (inactive),> 100 µM (inactive),> 100 µM (inactive),> 100 µM (inactive),> 100 µM (inactive),> 100 µM (inactive)
O=S1(=O)c2ccccc2C(=NO)c2ccccc21,> 100 µM (inactive),> 100 µM (inactive),> 100 µM (inactive),80 µM (inactive),> 100 µM (inactive),> 100 µM (inactive),> 100 µM (inactive),> 100 µM (inactive),> 100 µM (inactive),> 100 µM (inactive),37.1 µM (inactive),39.7 µM (inactive),> 100 µM (inactive),> 100 µM (inactive),> 100 µM (inactive),> 100 µM (inactive),68.2 µM (inactive),> 100 µM (inactive),47.1 µM (inactive),> 100 µM (inactive)
O=c1c(Br)c(-c2ccccc2)[s+]([O-])c2ccccc12 (stereo not drawn),1.89 µM (inactive),2.96 µM (inactive),12.9 µM (inactive),2.8 µM (inactive),12.9 µM (inactive),18.4 µM (inactive),14.2 µM (inactive),18.2 µM (inactive),1.59 µM (inactive),2.43 µM (inactive),1.68 µM (inactive),10.4 µM (inactive),10.5 µM (inactive),4.5 µM (inactive),6 µM (inactive),4.6 µM (inactive),2.74 µM (inactive),5.9 µM (inactive),0.861 µM (active),17.9 µM (inactive)
OCC1CCCCN1Cc1nc2cc(Cl)ccc2[nH]1 (stereo not drawn),> 100 µM (inactive),> 100 µM (inactive),> 100 µM (inactive),> 100 µM (inactive),> 100 µM (inactive),> 100 µM (inactive),> 100 µM (inactive),> 100 µM (inactive),> 100 µM (inactive),> 100 µM (inactive),> 100 µM (inactive),> 100 µM (inactive),> 100 µM (inactive),> 100 µM (inactive),> 100 µM (inactive),> 100 µM (inactive),> 100 µM (inactive),> 100 µM (inactive),> 100 µM (inactive),> 100 µM (inactive)
CCCCCCCCCCc1c2nc(c(CCCCCCCCCC)c3ccc([nH]3)c(CCCCCCCCCC)c3nc(c(CCCCCCCCCC)c4ccc1[nH]4)C=C3)C=C2,> 100 µM (inactive),> 100 µM (inactive),> 100 µM (inactive),> 100 µM (inactive),> 100 µM (inactive),> 100 µM (inactive),> 100 µM (inactive),> 100 µM (inactive),> 100 µM (inactive),> 100 µM (inactive),> 100 µM (inactive),> 100 µM (inactive),> 100 µM (inactive),> 100 µM (inactive),> 100 µM (inactive),> 100 µM (inactive),> 100 µM (inactive),> 100 µM (inactive),> 100 µM (inactive),> 100 µM (inactive)
O=[N+]([O-])c1ccc(C2ON=C(c3ccccc3)N2C23CC4CC(CC(C4)C2)C3)cc1 (stereo not drawn),> 10 µM (inactive),> 10 µM (inactive),> 10 µM (inactive),> 10 µM (inactive),> 10 µM (inactive),> 10 µM (inactive),> 10 µM (inactive),> 10 µM (inactive),> 10 µM (inactive),> 10 µM (inactive),> 10 µM (inactive),> 10 µM (inactive),> 10 µM (inactive),> 10 µM (inactive),> 10 µM (inactive),> 10 µM (inactive),> 10 µM (inactive),> 10 µM (inactive),> 10 µM (inactive),> 10 µM (inactive)
CC(C)(C)OC(=O)n1cc(C2CN(O)C(=O)C23CCC(=O)N3Cc2ccccc2)c2ccccc21 (stereo not drawn),36.1 µM (inactive),33.5 µM (inactive),64.1 µM (inactive),50.6 µM (inactive),> 100 µM (inactive),14.8 µM (inactive),60.1 µM (inactive),32.8 µM (inactive),98.9 µM (inactive),93.1 µM (inactive),14.1 µM (inactive),66.5 µM (inactive),4.46 µM (inactive),28.6 µM (inactive),52.7 µM (inactive),,78.7 µM (inactive),66.2 µM (inactive),83.2 µM (inactive),78.5 µM (inactive)
CCCc1cc(=O)oc2c(C=O)c(O)cc(O)c12,17.7 µM (inactive),27 µM (inactive),24.6 µM (inactive),23.1 µM (inactive),22.8 µM (inactive),18.2 µM (inactive),27.5 µM (inactive),> 100 µM (inactive),25.8 µM (inactive),22.3 µM (inactive),15.1 µM (inactive),18.7 µM (inactive),18.7 µM (inactive),21.8 µM (inactive),22.3 µM (inactive),22 µM (inactive),57.4 µM (inactive),21.8 µM (inactive),22.8 µM (inactive),29.9 µM (inactive)
N#Cc1nc(C2CC2)oc1N,> 100 µM (inactive),> 100 µM (inactive),> 100 µM (inactive),> 100 µM (inactive),> 100 µM (inactive),> 100 µM (inactive),> 100 µM (inactive),> 100 µM (inactive),> 100 µM (inactive),> 100 µM (inactive),25.2 µM (inactive),> 100 µM (inactive),> 100 µM (inactive),> 100 µM (inactive),> 100 µM (inactive),> 100 µM (inactive),> 100 µM (inactive),> 100 µM (inactive),38.4 µM (inactive),> 100 µM (inactive)
N=C(N)/N=C(\N)Nc1ccc(C(=O)O)cc1,> 100 µM (inactive),> 100 µM (inactive),> 100 µM (inactive),> 100 µM (inactive),> 100 µM (inactive),> 100 µM (inactive),> 100 µM (inactive),> 100 µM (inactive),> 100 µM (inactive),> 100 µM (inactive),> 100 µM (inactive),> 100 µM (inactive),> 100 µM (inactive),> 100 µM (inactive),> 100 µM (inactive),> 100 µM (inactive),> 100 µM (inactive),> 100 µM (inactive),> 100 µM (inactive),> 100 µM (inactive)
O=C1CCc2cc([N+](=O)[O-])ccc2O1,> 100 µM (inactive),> 100 µM (inactive),> 100 µM (inactive),> 100 µM (inactive),> 100 µM (inactive),> 100 µM (inactive),> 100 µM (inactive),> 100 µM (inactive),> 100 µM (inactive),> 100 µM (inactive),> 100 µM (inactive),> 100 µM (inactive),> 100 µM (inactive),> 100 µM (inactive),> 100 µM (inactive),> 100 µM (inactive),> 100 µM (inactive),> 100 µM (inactive),> 100 µM (inactive),> 100 µM (inactive)
Cc1nc2n(c1/C=C1/C(=O)Nc3ccccc31)CCS2,20.2 µM (inactive),24.3 µM (inactive),33.3 µM (inactive),25.8 µM (inactive),67.5 µM (inactive),5.74 µM (inactive),53.8 µM (inactive),31.6 µM (inactive),52.5 µM (inactive),> 100 µM (inactive),34.5 µM (inactive),70.1 µM (inactive),> 100 µM (inactive),14.8 µM (inactive),17.6 µM (inactive),79.6 µM (inactive),33.3 µM (inactive),33.6 µM (inactive),47.1 µM (inactive),39.6 µM (inactive)
CCC1=C(CC2NCCc3ccccc32)CC2c3cc(OC)c(OC)cc3CCN2C1 (stereo not drawn),,0.292 µM (active),1.02 µM (active),0.514 µM (active),0.502 µM (active),0.603 µM (active),0.356 µM (active),0.728 µM (active),0.237 µM (active),0.627 µM (active),0.316 µM (active),0.841 µM (active),0.675 µM (active),0.327 µM (active),0.452 µM (active),0.445 µM (active),0.286 µM (active),0.307 µM (active),0.357 µM (active),0.565 µM (active)
